Test results published in publication PMC6315298 (2018).

Test system: Mango-II (RNA, aptamer) GCGUACGAAGGAGAGGAGAGGAAGAGGAGAGUACGC
Test: fluorescence binding

Compound	Kd
CN1C=CC(=C/C=C/c2sc3ccccc3[n+]2CC(=O)NCCOCCOCCOCCNC(=O)CCCC[C@@H]2SC[C@@H]3NC(=O)N[C@@H]32)c2ccccc21	~ 1.4 nM
CN1C=CC(=Cc2sc3ccccc3[n+]2CC(=O)NCCOCCOCCOCCNC(=O)CCCC[C@@H]2SC[C@@H]3NC(=O)N[C@@H]32)c2ccccc21	1.1 nM
